Patent publication US20060046968A1, “Prodrug substituted benzoxazoles as estrogenic agents” (priority 2004, published 2006)

Experiments:
[1] = Cytosolic incubation in the presence of PAPS (sulfation), rat; format: in vitro ADME
Experimental: These pilot incubations (1.0 mL incubation volume) were conducted using a substrate concentration of 100 μM ERB-041 at 37° C. for 60 mins. Incubations were terminated by the addition of an equal volume of chilled acetonitrile. Large-scale incubations (a total of 60 incubations @ 1.0 mL incubation volume) to generate sufficient quantities of the sulfate metabolites for structure elucidation were subsequently conducted as described above at 37° C. for 60 mins. Appropriate substrate controls and incubations without addition of PAPS were conducted. Additional incubations (a total of 120 @ 2.0 mL incubation volume, 50 μM ERB-041) were also conducted in a similar manner to isolate sufficient amounts of ERB-041-sulfates to enable full structural identification. Reserved phase-HPLC was utilized for all metabolite analysis. To confirm the formation of glucuronide and sulfate conjugates of ERB-041 in pilot scale incubations, HPLC analysis was performed using an Agilent 1100 LC system equipped with a diode array detector (Agilent Technologies, Wilmington, Del.). […] Rat liver and human liver cytosol incubations produced similar profiles. […] Further confirmation of the identity of the isolated metabolites […] and M9 from the large-scale incubations was obtained using LC-MS analysis (ESI, negative ionization). […]

Lewis rats = assay: Lewis rat adjuvant-induced arthritis, inhibition protocol: joint score (maximal score per day 12); format: in vivo

converted to the two sulfate conjugates ([1]; large-scale incubation with PAPS): approximately 23%
Compound: C=Cc1cc(O)cc2nc(-c3ccc(O)c(F)c3)oc12 [Example 24, 2-(3-FLUORO-4-HYDROXYPH ENYL)-7-VI NYL-1,3-BENZOXAZOL-5-OL]
Metabolites detected ([1]; 100 μM, 37° C., 60 mins, with PAPS, rat liver cytosol): two metabolites (M9A and M9) were detected
Joint inflammation score (Lewis rats; s.c. daily from Day 1, Day 1): 0.00
Joint inflammation score (Lewis rats; s.c. daily from Day 1, Day 2): 1.00
Joint inflammation score (Lewis rats; s.c. daily from Day 1, Day 3): 4.50
Joint inflammation score (Lewis rats; s.c. daily from Day 1, Day 4): 4.83
Joint inflammation score (Lewis rats; s.c. daily from Day 1, Day 5): 5.83
Joint inflammation score (Lewis rats; s.c. daily from Day 1, Day 6): 6.16
Joint inflammation score (Lewis rats; s.c. daily from Day 1, Day 7): 6.16
Joint inflammation score (Lewis rats; s.c. daily from Day 1, Day 8): 5.33
Joint inflammation score (Lewis rats; s.c. daily from Day 1, Day 9): 5.66
Joint inflammation score (Lewis rats; s.c. daily from Day 1, Day 10): 4.33
Joint inflammation score (Lewis rats; s.c. daily from Day 1, Day 11): 3.16
Joint inflammation score (Lewis rats; s.c. daily from Day 1, Day 12): 3.16
Joint inflammation score (Lewis rats; s.c. daily from Day 1, Day 13): 2.16
Joint inflammation score (Lewis rats; s.c. daily from Day 1, Day 14): 3.33
Joint inflammation score (Lewis rats; s.c. daily from Day 1, Day 15): 3.00
Joint inflammation score (Lewis rats; s.c. daily from Day 1, Day 16): 1.66
Joint inflammation score (Lewis rats; s.c. daily from Day 1, Day 17): 1.50
